The text below walks through data of patent US9974304B2, “Use of macrocyclic picolinamides as fungicides” (DOW AGROSCIENCES LLC, priority 2013, dated 2018).

A word on the melting point: it is the temperature of the solid-liquid transition. Take `COc1ccnc(C(=O)N[C@H]2COC[C@H](Oc3ccccc3)[C@@H](Cc3ccccc3)[C@H](C)OC2=O)c1OC(C)=O` [Compound 81]: the melting point lay within 75 to 81 °C.
`COc1ccnc(C(=O)N[C@H]2COC[C@H](Oc3ccccc3)[C@@H](CCC(C)C)[C@H](C)OC2=O)c1OC(C)=O` [Compound 47]: the melting point lay in the range of 66 to 70 °C.
